Earlier results in patent publication US10059681B2, “Disubstituted maleic anhydrides with altered kinetics of ring closure” (Arrowhead Madison Inc., priority 2011, dated 2018).

What was measured:
[1] = Eberson et al. 1971
[2] = Kirby 1980

Structure (SMILES)	K=k1/k−1 of equilibrium in water toward ring closure [1]	kobs of amine release [2]
O=C(O)c1ccccc1C(=O)O [phthalic acid]	10^−2	
CNC(=O)C1=C(C(=O)O)CCCC1		3.5×10^−2
C/C(C(=O)O)=C(\C)C(=O)O [dimethyl maleic acid]	5.3	
